The data set can be described thus: pH and solubility behaviour of the anesthetic in water. In kind it is physicochemical. An excerpt:
In a preferred aspect, the pH modifier and the quantity of the pH modifier are selected to provide a pH to the composition of from 4 to 7, from 4.5 to 6.5, or more preferably from 5 to 5.3 when pramoxine serves as an anesthetic. In one aspect, the preferred pH for the gel is a pH value where the anesthetic is substantially present in its neutral state. For example, the hydrochloride salt of pramoxine has an acidic pH in water of about 4. However, at about pH 5 the pramoxine salt deprotonates to a neutral form that may provide increased transfer of the anesthetic into the vulvar tissues. Thus, a sufficient quantity of a base may be added to the gel as a pH modifier to provide the anesthetic in a substantially neutral form. However, at an upper pH value, such as about 5.2 for pramoxine, the anesthetic may precipitate out of the water phase, thus reducing the clarity of the gel. Thus, in a more preferred aspect, the pH modifier is chosen to provide a pH to the gel at which the majority of the anesthetic is present in its neutral state while remaining substantially solubilized.

Where a name gives a salt, the structure may show the parent alone.

As to `CCOC(=O)c1ccc(N)cc1` [benzocaine], the water solubility entry was “water insoluble”.
Consider `CCCCOc1ccc(OCCCN2CCOCC2)cc1` [hydrochloride salt of pramoxine, pramoxine hydrochloride], for which the “pH at which the salt deprotonates to a neutral form” value is on record as about 5 and the “upper pH value at which the anesthetic may precipitate out of the water phase” value was “about 5.2”. For the same molecule, the pH in water result (hydrochloride salt in water) was “about 4”.

These data come from patent US8252308B2, “Feminine anti-itch gel” (C.B. Fleet Company Inc., priority 2005, dated 2012).
